Test results taken from article PMC9934367, “Functional impact of subunit composition and compensation on Drosophila melanogaster nicotinic receptors–targets of neonicotinoids” (PLOS Genetics, 2023).

Legend:
Dα3/Dβ1 nAChR = target: T1, Dα3/Dβ1 nAChR (Drosophila melanogaster, UniProt P04755+Q9W3G6); assay: cell-based; format: cell-based, D. melanogaster; settings: Dα3/Dβ1 nAChR, mean ± standard error (n = 5)
T1 construct: Dβ1 (NP_523927); expressed in transfected cells; host or cells: Xenopus laevis oocytes (cRNA injection)
Protocol: cDNAs of the nAChR subunits and co-factors were cloned into pcDNA3.1 (+) vector (Thermo Fisher Scientific). The accession numbers of the nAChR subunits and cofactors are as follows: Dα1 (NP_524481), Dα2 (NP_524482), Dα3 (NP_525079), Dα4 (CAB77445), Dβ1 (NP_523927), Dβ2 (NP_524483), Dβ3 (NP_525098), DmRIC-3 (CAP16647), DmUNC-50 (NP_649813), and DmTMX3 (NP_648847). cRNAs were prepared using the mMESSAGE mMACHINE T7 ULTRA Transcription Kit (Thermo Fisher Scientific, #AM1345) according to the manual with the cDNA template which was cut with appropriate restriction enzymes at the 3’ end of the cDNA.
We minimised the use of X. laevis according to the UK Animals (Scientific Procedures) Act, 1986. […] Oocytes were defolliculated after collagenase treatment in Ca^2+-free standard oocyte saline (Ca^2+-free SOS). cRNAs of the nAChR subunits and co-factors mixed at a concentration of 0.1 mg/mL was injected into oocytes at a volume of 50 nL. Then the oocytes were incubated in the incubation medium (SOS supplemented with sodium pyruvate (Nacalai Tesque, #13058–12), penicillin-streptomycin (MilliporeSigma, #P4333), gentamycin (Nacalai Tesque, #16672–04), and 4% horse serum (Thermo Fisher Scientific, #26050–070) for 3−4 days prior to electrophysiology.
Each defolliculated X. laevis oocyte was secured in a Perspex recording chamber and perfused with the standard oocyte saline (SOS) containing 0.5 μM atropine (SOSA) at a flow rate of 7−10 mL/min [48]. Two glass electrodes filled with 2 M KCl were impaled into each oocyte and the membrane potential was clamped at -100 mV. […] The peak amplitude of the response was measured and analysed by pCLAMP (Molecular Devices, USA).
Y=Imax/1+10^(logEC50‐X)nH
Where Y is the normalised response, X is log[ligand (M)], EC50 is the half maximal concentration (M), Imax is the maximum normalised response and nH is the Hill coefficient.

[1] = test system: Adult D. melanogaster flies; assay: Adult climbing assay; format: in vivo; settings: RNAi of Dα2
Protocol: All flies were raised at 25°C under 12 h/12 h light/dark cycle. The animals were reared on standard fly food containing 5.5 g agar, 100 g glucose, 40 g dry yeast, 90 g cornflour, 3 mL propionic acid, and 3.5 mL 10% butyl p-hydroxybenzoate (Nacalai Tesque, Japan, #06327–15) in 70% ethanol per liter. The control strain was w^1118, and transgenic flies are as follows: UAS-nAChRα1 RNAi (#28688) was obtained from the Bloomington Drosophila Stock Center (BDSC); UAS-nAChRα2 RNAi (UAS-Dα2 RNAi, #10760), UAS-nAChRα3 RNAi (UAS-Dα3 RNAi, #101806); UAS-dicer2 (#60009) were obtained from the Vienna Drosophila Resource Center (VDRC); and UAS-mCD8::GFP (#108068) was obtained from Kyoto Stock Center. elav-Gal4 (3A3) was obtained from Michael B. O’Connor. nAChRα3-knock-in 2A-Gal4 (Dα3-knock-in T2A-Gal4) was generated by the CRISPR/Cas9 system as described in detail below.
Adult D. melanogaster flies were collected within a day following eclosion and placed in normal fly food (less than 30 flies/vial). Flies were transferred daily to new fly food. 2–5 days after eclosion, flies were briefly anesthetised with CO2, and the sexes were separated and sorted into fly vials containing 1.0% agar food for starvation (10 flies/vial). After 16 h starvation, flies were transferred to vials containing neonicotinoid-containing food without anesthesia and cultured for 6 h (10 flies/vial). Neonicotinoid-containing foods were prepared by mixing 10 μL of diluted neonicotinoids dissolved in DMSO with 990 μL of a solution containing 1% agar and 5% sucrose for each vial. After 6 h cultured in vials containing neonicotinoid-containing food, flies were gently tapped down to the surface of the food, and flies that climbed within 20 s after tapping were recorded by a video camera (GZ-F270-W, JVCKENWOOD, Japan). The maximum climbing heights of the flies within 20 s after tapping were measured using ImageJ1.53v (National Institute of Health, USA). Since the height from the surface of the food to the vial top is 8 cm, the maximum climbing height is 8 cm.

[2] = normalised to maximum ACh response

SMILES | Imax (Dα3/Dβ1 nAChR; efficacy) | EC50 (Dα3/Dβ1 nAChR) [nM] | Imax (Dα3/Dβ1 nAChR; [2]) | sensitivity in adults, effect of RNAi ([1]; adult males) | sensitivity in adults, effect of RNAi ([1]; adult females)
CC(=O)OCC[N+](C)(C)C [ACh, acetylcholine] | 1 |  |  |  | 
CN/C(=N\[N+](=O)[O-])NCc1cnc(Cl)s1 [Clothianidin, clothianidin] | 0.691 | 28.8 | 0.691 ± 0.013 | hypersensitivity | 
O=[N+]([O-])NC1=NCCN1Cc1ccc(Cl)nc1 [Imidacloprid, imidacloprid] | 0.032 | 4.79 | 0.032 ± 0.003 | hypersensitivity | hypersensitivity
N#C/N=C1\SCCN1Cc1ccc(Cl)nc1 [Thiacloprid, thiacloprid] | 0.016 | 15.8 | 0.016 ± 0.001 | hypersensitivity | hypersensitivity
